Laboratory results: US7989482B2, “Indoline anti-cancer agents” (Joyant Pharmaceuticals, Inc., priority 2008, dated 2011)
Where two headings read alike, the source gives them in different places.

Experiments:
[1] = tested on: U937 cells; test: Cell viability assay (CELL-TITER-GLO) in U937 cells; format: cell-based; conditions: Homo sapiens, U937 cells, 48 hour treatment, cell viability, read-out: IC50 (μM) U937
Procedure: (§1) Cell viability assays were run using standard protocols known to those of skill in art. Cells were plated in 96 well plates at the density of 3,000-10,000 cells per well. Twenty four hours later, cells were treated with increasing concentration of test compounds (1 nM to 1 μM). After another 48 hour, cell survival was measured using CELL-TITER-GLO® reagent (Promega) following the protocol provided by the manufacture. The IC50 value was determined as the concentration of test compound that kills 50% of the cell population.
(§2) Cell viability data generated according to the protocol described in Example 97 was generated for representative compounds in A2058 and U937 cells.

[2] = tested on: A2058 cells; test: Cell viability assay (CELL-TITER-GLO) in A2058 cells; format: cell-based; conditions: Homo sapiens, A2058 cells, 48 hour treatment, cell viability, read-out: IC50 (μM) A2058
Procedure: as §1, §2

Structure (SMILES) | IC50 ([1]; U-937, 48 h) | IC50 ([2]; A2058, 48 h) | IC50 ([1]; U-937) | IC50 [2]
COC(=O)c1nc2oc1C13c4ccccc4N[C@H]1Oc1ccc(cc13)C[C@H](NC(=O)[C@@H](O)CC(C)C)C(=O)N[C@H]2C(C)C (stereo partly shown) [Example 9] | > 1 µM | > 1 µM |  | 
CC(C)[C@H](O)C(=O)N[C@H]1Cc2ccc3c(c2)C2(C4=C(c5ncc(-c6c[nH]c7ccccc67)o5)N=C(O4)[C@H](C(C)C)NC1=O)c1ccccc1N[C@H]2O3 (stereo partly shown) [Example 91] | 0.579 µM | 0.475 µM |  | 
Cc1noc(-c2nc3oc2C24c5ccccc5N[C@H]2Oc2ccc(cc24)C[C@H](NC(=O)[C@@H](O)C(C)C)C(=O)N[C@H]3C(C)C)n1 (stereo partly shown) [Example 87] | 0.164 µM | 0.479 µM |  | 
COC(=O)c1nc2oc1C13c4cc(ccc4O[C@@H]1Nc1c(-c4cccc5[nH]ccc45)cccc13)C[C@H](NC(=O)[C@@H](O)C(C)C)C(=O)N[C@H]2C(C)C (stereo partly shown) [Example 39] | > 1 µM | > 1 µM |  | 
[H][C@@]1(C(=O)N[C@H]2Cc3ccc4c(c3)C3(C5=C(c6nc(C(=O)OC)co6)N=C(O5)[C@H](C(C)C)NC2=O)c2ccccc2N[C@H]3O4)CCCO1 (stereo partly shown) [Example 50] | 0.04 µM | 0.075 µM |  | 
CC(C)[C@H](O)C(=O)N[C@H]1Cc2ccc3c(c2)C2(C4=C(C(=O)NC5CCCCC5)N=C(O4)[C@H](C(C)C)NC1=O)c1ccccc1N[C@H]2O3 (stereo partly shown) [Example 22] | > 1 µM | > 1 µM |  | 
COC(=O)c1nc2oc1C13c4cc(ccc4O[C@@H]1Nc1c(-c4c(C)cccc4C)cccc13)C[C@H](NC(=O)[C@@H](O)C(C)C)C(=O)N[C@H]2C(C)C (stereo partly shown) [Example 40] | > 1 µM | > 1 µM |  | 
CC(C)[C@H](O)C(=O)N[C@H]1Cc2ccc3c(c2)C2(C4=C(C(=O)N5CCN=C5c5ccccc5)N=C(O4)[C@H](C(C)C)NC1=O)c1ccccc1N[C@H]2O3 (stereo partly shown) [Example 27] | > 1 µM | > 1 µM |  | 
Cc1coc(-c2nc3oc2C24c5ccccc5N[C@H]2Oc2ccc(cc24)C[C@H](NC(=O)[C@@H](O)C(C)C)C(=O)N[C@H]3C(C)C)n1 (stereo partly shown) [Example 79] | 0.071 µM | 0.174 µM |  | 
CC(C)[C@H](O)C(=O)N[C@H]1Cc2ccc3c(c2)C2(C4=C(c5nc(C(=O)NC(C)(C)C)co5)N=C(O4)[C@H](C(C)C)NC1=O)c1ccccc1N[C@H]2O3 (stereo partly shown) [Example 59] | 0.604 µM | 0.514 µM |  | 
COC(=O)c1nc2oc1C13c4ccccc4N[C@H]1Oc1ccc(cc13)C[C@H](NC(=O)c1cc(OC)c(OC)c(OC)c1)C(=O)N[C@H]2C(C)C (stereo partly shown) [Example 10] | > 1 µM | > 1 µM |  | 
CC(C)[C@H](O)C(=O)N[C@H]1Cc2ccc3c(c2)[C@]24C5=C(N=C(O5)[C@H](C(C)C)NC1=O)c1ncc(o1)-c1c[nH]c5cccc(c15)-c1cccc2c1NC4O3 (stereo partly shown) [Cpd J, reference compound] | 0.026 µM | 0.039 µM |  | 
CC(C)[C@H](O)C(=O)N[C@H]1Cc2ccc3c(c2)[C@]2(C4=C(C(=O)O)N=C(O4)[C@H](C(C)C)NC1=O)c1ccccc1NC2O3 (stereo partly shown) [Example 12] |  |  | > 1 µM | > 1 µM
CCCCCCc1cccc2c1N[C@H]1Oc3ccc4cc3C21c1oc(nc1-c1nc(C(=O)OC)co1)[C@H](C(C)C)NC(=O)[C@@H](NC(=O)[C@@H](O)C(C)C)C4 (stereo partly shown) [Example 54] | 0.063 µM | 0.164 µM |  | 
CC(C)[C@H](O)C(=O)N[C@H]1Cc2ccc3c(c2)C2(C4=C(C(=O)NCC(c5ccccc5)c5ccccc5)N=C(O4)[C@H](C(C)C)NC1=O)c1ccccc1N[C@H]2O3 (stereo partly shown) [Example 18] | > 1 µM | > 1 µM |  | 
COC(=O)c1nc2oc1C13c4ccccc4N[C@H]1Oc1ccc(cc13)C[C@H](NC(=O)[C@@H]1C[C@@H](O)CN1)C(=O)NC2C(C)C (stereo partly shown) [Example 36] |  |  | > 1 µM | > 1 µM

Structure (SMILES) | IC50 ([1]; U-937, 48 h) | IC50 ([2]; A2058, 48 h) | IC50 ([1]; U-937) | IC50 [2]
CC(C)[C@H](O)C(=O)N[C@H]1Cc2ccc3c(c2)C2(C4=C(c5nc(C(N)=O)co5)N=C(O4)[C@H](C(C)C)NC1=O)c1ccccc1N[C@H]2O3 (stereo partly shown) [Example 66] | 0.218 µM | 0.363 µM |  | 
CC(C)[C@H](O)C(=O)NC1Cc2ccc3c(c2)C2(C4=C(c5ncc(-c6ccccc6)o5)N=C(O4)[C@H](C(C)C)NC1=O)c1ccccc1N[C@H]2O3 (stereo partly shown) [Example 72] | > 1 µM | > 1 µM |  | 
CCC(C)(O)C(=O)N[C@H]1Cc2ccc3c(c2)C2(C4=C(c5nc(C(=O)OC)co5)N=C(O4)[C@H](C(C)C)NC1=O)c1ccccc1N[C@H]2O3 (stereo partly shown) [Example 52] | 0.028 µM | 0.108 µM |  | 
CC(C)[C@H](O)C(=O)N[C@H]1Cc2ccc3c(c2)C2(C4=C(c5nc(C(=O)N6CCCC6)co5)N=C(O4)[C@H](C(C)C)NC1=O)c1ccccc1N[C@H]2O3 (stereo partly shown) [Example 60] | 0.562 µM | 0.636 µM |  | 
COC(=O)c1nc2oc1[C@@]13c4ccccc4NC1Oc1ccc(cc13)C[C@H](NC(=O)[C@@H](O)C(C)C)C(=O)N[C@H]2C(C)C (stereo partly shown) [Example 6] | > 1 µM | > 1 µM |  | 
CC(C)[C@H](O)C(=O)N[C@H]1Cc2ccc3c(c2)C2(C4=C(C(=O)N5CCCC5c5ccccc5)N=C(O4)[C@H](C(C)C)NC1=O)c1ccccc1N[C@H]2O3 (stereo partly shown) [Example 21] | > 1 µM | > 1 µM |  | 
CC(C)[C@H](O)C(=O)N[C@H]1Cc2ccc3c(c2)C2(C4=C(C(=O)NCc5ccc(F)cc5)N=C(O4)[C@H](C(C)C)NC1=O)c1ccccc1N[C@H]2O3 (stereo partly shown) [Example 20] | > 1 µM | > 1 µM |  | 
CCC(O)(CC)C(=O)N[C@H]1Cc2ccc3c(c2)C2(C4=C(c5nc(C(=O)O)co5)N=C(O4)[C@H](C(C)C)NC1=O)c1ccccc1N[C@H]2O3 (stereo partly shown) [Example 55] |  |  | 0.9 µM | > 1 µM
CC(C)[C@H](O)C(=O)N[C@H]1Cc2ccc3c(c2)C2(C4=C(c5nc(C#N)c(N)o5)N=C(O4)[C@H](C(C)C)NC1=O)c1ccccc1N[C@H]2O3 (stereo partly shown) [Example 86] | 0.064 µM | 0.179 µM |  | 
CC(C)[C@H](O)C(=O)N[C@H]1Cc2ccc3c(c2)C2(C4=C(C(=O)NC(C)(C)C)N=C(O4)[C@H](C(C)C)NC1=O)c1ccccc1N[C@H]2O3 (stereo partly shown) [Example 24] | > 1 µM | > 1 µM |  | 
COC(=O)[C@@H]1CCCN1C(=O)c1nc2oc1C13c4ccccc4N[C@H]1Oc1ccc(cc13)C[C@H](NC(=O)[C@@H](O)C(C)C)C(=O)N[C@H]2C(C)C (stereo partly shown) [Example 13] | > 1 µM | > 1 µM |  | 
CC(C)[C@H](O)C(=O)N[C@H]1Cc2ccc3c(c2)C2(C4=C(c5ncc(-c6c[nH]c7c(O)cccc67)o5)N=C(O4)[C@H](C(C)C)NC1=O)c1ccccc1N[C@H]2O3 (stereo partly shown) [Example 90] | > 1 µM | 0.994 µM |  | 
COCc1coc(-c2nc3oc2C24c5ccccc5N[C@H]2Oc2ccc(cc24)C[C@H](NC(=O)[C@@H](O)C(C)C)C(=O)N[C@H]3C(C)C)n1 (stereo partly shown) [Example 76] | 0.127 µM | 0.114 µM |  | 
CC(C)[C@H](O)C(=O)N[C@H]1Cc2ccc3c(c2)[C@]2(C4=C(C(=O)NCCc5c[nH]c6ccccc56)N=C(O4)[C@H](C(C)C)NC1=O)c1ccccc1NC2O3 (stereo partly shown) [Example 11] | > 1 µM | > 1 µM |  | 
CC(C)[C@H](O)C(=O)N[C@H]1Cc2ccc3c(c2)C2(C4=C(C(=O)NCC(=O)c5c[nH]c6c(O)cccc56)N=C(O4)[C@H](C(C)C)NC1=O)c1ccccc1N[C@H]2O3 (stereo partly shown) [Example 32] | > 1 µM | > 1 µM |  | 
COC(=O)c1nc(-c2nc3oc2C24c5ccccc5N[C@H]2Oc2ccc(cc24)CC(NC(=O)[C@@H](O)C(C)C)C(=O)N[C@H]3C(C)C)oc1C (stereo partly shown) [Example 67] | 0.024 µM | 0.047 µM |  | 
